Source: patent US7029916B2, “Apparatus and method for flow electroporation of biological samples” (MAXCYTE, Inc., priority 2001, dated 2006)

Columns and labels:
hemoglobin [1] = target: T1, hemoglobin (Homo sapiens, UniProt P68871); conditions: pH 7.4, 37° C.; cited from earlier work
hemoglobin [2] = target: T1, hemoglobin; conditions: relative to DPG; cited from earlier work
resting Lymphocytes = test: Transfection efficiency analysis, resting lymphocytes; type: cell-based
Method: Primary lymphocytes were suspended in B&K buffer (125 mM KCl, 15 mM NaCl, 1.2 mM MgCl2, 3 mM glucose, 25 mM Hepes, pH 7.4) cell concentration was set from 1×10^7 cells/mL to 6×10^8 cells/mL together with DNA plasmid from 50 μg/mL to 1 mg/mL. Electroporation, 2.3 kV/cm, 400 μs, 4 pulses for small volume experiments (15 μl) or 2.2 kV/cm, 1.6 ms, 1 pulse for large volume experiments (0.5 mL–2 mL) was performed at room temperature. Following electroporation, cells were incubated in B&K buffer for 20 min at 37° C. for small volume experiments, or diluted by 10× volume of culture medium (RPMI-1640+10% fetal bovine serum+1% Pen-strep+2 mM L-glutamine) for large volume experiments. Cells were cultured in culture medium for various periods (up to 72 hours) and the transfection efficiency was analyzed.
Seven transgenes (Ds-Red, eGFP, βGal, hEndostatin, hEPO, hIFNα, hIL-2) were tested in these experiments. […] When pCMV-Ds-Red or pCMV-EGFP was used, the percentage of the fluorescent cells was counted, by FACS or by manual counting under phase contrast and fluorescence microscope, as the transfection efficiency. […] When pCMV-Endostatin was used, the Endostatin concentration in the supernatant was analyzed by ELISA kit from Cytimmune Sciences, Inc. (College Park, Md.). For pCMV-EPO electroporation, the erythropoietin concentration in the supernatant was analyzed by R&D ELISA kit (Minneapolis, Minn.).

T1 sequence (P69905 2-142 partner limits assumed): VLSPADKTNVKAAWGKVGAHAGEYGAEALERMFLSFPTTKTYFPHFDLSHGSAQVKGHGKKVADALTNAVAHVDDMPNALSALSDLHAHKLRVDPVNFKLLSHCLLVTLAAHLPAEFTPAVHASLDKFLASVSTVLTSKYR
T1 sequence (P68871 2-147 limits assumed): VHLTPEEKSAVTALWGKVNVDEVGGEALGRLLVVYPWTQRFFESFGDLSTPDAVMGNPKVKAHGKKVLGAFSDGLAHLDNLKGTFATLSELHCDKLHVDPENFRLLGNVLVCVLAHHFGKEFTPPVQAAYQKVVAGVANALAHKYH

Compound | P50 of hemoglobin (hemoglobin [1]) | affinity to hemoglobin, higher than DPG (hemoglobin [2]) | Efficiency (% of + cells) (resting Lymphocytes) | Viability (resting Lymphocytes)
O=P(O)(O)O[C@H]1[C@H](OP(=O)(O)O)[C@@H](OP(=O)(O)O)[C@H](OP(=O)(O)O)[C@@H](OP(=O)(O)O)[C@H]1OP(=O)(O)O [IHP, inositol hexaphosphate] | ≤ 96.4 mm Hg | 1000 fold | – | –
βGal | – | – | 15% | 40%
